These are literature values, as cited in patent US20220202680A1, “INCREASING THE STABILITY OF AGENTS FOR TREATING KERATIN MATERIAL” (Henkel AG & Co. KGaA, priority 2019, published 2022).

The structures appear in SMILES notation.

For the data set the following is noted: for solubility in water: 25° C.

`Nc1cc(S(=O)(=O)[O-])cc2cc(S(=O)(=O)[O-])c(N=Nc3ccccc3)c(O)c12.[Na+].[Na+]` [Acid Red 33, diantrium salt of 5-amino-4-hydroxy-3-(phenylazo)-naphthalene-2,7-disulphonate]: the solubility in water is 2500 µg/mL. Regarding `O=C([O-])C1=NN(c2ccc(S(=O)(=O)[O-])cc2)C(=O)C1N=Nc1ccc(S(=O)(=O)[O-])cc1.[Na+].[Na+].[Na+]` (stereo not shown) [Acid Yellow 23, trisodium salt of 4,5-dihydro-5-oxo-1-(4-sulfophenyl)-4-((4-sulfophenyl)azo)-1H-pyrazole-3-carboxylic acid], where the note is “at 25° C.”, the “solubility in water (in words)” value is on record as “highly soluble”. With `O=C([O-])c1c(Cl)c(Cl)c(Cl)c(Cl)c1-c1c2c(Br)cc(=O)c(Br)c-2oc2c(Br)c(O)cc(Br)c12.O=C([O-])c1c(Cl)c(Cl)c(Cl)c(Cl)c1-c1c2c(Br)cc(=O)c(Br)c-2oc2c(Br)c(O)cc(Br)c12.[Na+].[Na+]` [Acid Red 92, disodium salt of 3,4,5,6-tetrachloro-2-(1,4,5,8-tetrabromo-6-hydroxy-3-oxoxanthen-9-yl)benzoic acid], the solubility in water result is listed as “greater than 10 g/L”.

On to `O=S(=O)([O-])c1ccc(N=Nc2c(O)ccc3ccccc23)cc1.[Na+]` [Acid Orange 7, sodium salt of 4-[(2-hydroxy-1-naphthyl)azo]benzene sulphonate], for which the solubility in water result is “more than 7 g/L”.
